Columns and labels:
Format in all cases: physicochemical
[1] = Storage stability of exposed powder at 25° C. and 60% RH for seven days, compared by XRPD; settings: for Stability test (25° C. 60% RH-7 d): resulting form
Method: Approximately 30 mg of exposed powder of comparative form 1 and new forms II and III, respectively, were stored at 25′C and 60% RH for seven days. Each powder was then analyzed by XRPD and its diffraction pattern was compared with that of untreated sample.

[2] = Dynamic vapor sorption (DVS) analysis / hygroscopicity (EP 7.0 classification); settings: for Change In Mass (%) Desorption / Change In Mass (%) Hysteresis / Change In Mass (%) Sorption: DVS, 25° C.; for Hygroscopically (DVS): DVS hygroscopicity class; for XRPD after DVS: resulting form after DVS
Method: The hygroscopicity value is directly obtained from the sorption row at 80% RH, cycle 1.
Hygroscopicity of a sample of each of new form II and comparative form I was determined using the protocol provided below in conditions of 80% RH and 25° C.
The sample was subjected to DVS measuring using SMS-DVS intrinsic. The kinetic moisture sorption measurement was performed at 25° C. and in a RH % range described in the following: • From 40% RH to 90% RH • Form 90% RH to 0% RH • From 0% RH to 90% RH • From 90% RH to 0% RH
The sample was analyzed by XRPD after the analysis.
The hygroscopicity was calculated using the following equation: % Weight Change=[(W2−W1)/W1]*100 W1: weight of sample at the start of the experiment (25° C. and 40% RH) W2: weight of sample at 25° C. and 80% RH in the first absorption cycle

[3] = Visual solubility in differing solvents (European Pharmacopeia 6.0 section 5.11)
Method: Visual solubility of certain forms (compounds) in differing solvents was assessed according to the procedure described in the European Pharmacopeia 6.0 section 5.11. p. The compound was shaken vigorously for 1 min and placed in a constant temperature device for 15 min at 25.0±0.5° C. If the compound was not completely dissolved, the shaking was repeated for 1 min and the tube placed in a constant temperature device for 15 min. 50 mg of compound was weighed in a stoppered tube, 0.05 mL of the solvent added and the Dissolving Procedure (see above) followed. If the compound was completely dissolved, it is very soluble. If the compound was not completely dissolved, a further 0.45 mL of the solvent was added and the Dissolving Procedure (see above) followed. […] If the compound was still not completely dissolved, still further 1.0 mL of the solvent was added and the Dissolving Procedure (see above) followed. If the compound was completely dissolved, it is soluble. If the compound was still not completely dissolved, another 3.5 mL of the solvent was added and the Dissolving Procedure (see above) followed. […] If the compound was still not completely dissolved, the compound is slightly soluble or very slightly soluble. In this case, and the suspension was heated up to the boiling point (max 80° C.) under stirring to verify the solubility at high temperature. The hot solution was afterwards cooled to room temperature to observe whether the compound precipitates. If the compound at room temperature was completely dissolved, it is soluble at high temperature. [table]

[4] = Micronization in fluid energy jet mill: particle size distribution and XRPD of product
Description: Vilanterol trifenatate form II is fed to a fluid energy jet mill at 10-100 g/h, operated with N2 at a pressure of 1 to 8 bar for the venturi and a pressure of 1 to 8 bar for the ring.

[5] = DSC - differential scanning calorimetry; settings: for DSC (onset) endo. degradation: endothermic event: degradation; for DSC (onset) endo. solvent loss + melting: endothermic event: solvent loss + melting (Form 6: + Form 2 melting; Form 14: + Form 3 melting); for DSC (onset) endo. solvent loss: endothermic event: solvent loss
Method: The analysis was carried out using a DSC Q200 TA instruments equipped with a refrigerator cooling system (RCS40) and autosampler. The sample was weighed in an aluminum hermetic pan with pinhole. The analysis was performed heating the sample from 25° C. to 350° C. at 10° C./min.

[6] = Stability test (60° C. 75% RH-3 d), form by XRPD; settings: resulting form
[7] = TGA / TGA-EGA thermogravimetric analysis with evolved gas analysis; settings: for EGA: evolved solvent identified; for TGA overall weight loss: overall loss of the named solvent(s)
Method: The analysis was carried out using the Mettler Toledo TGA/DSC1. The sample was weighed in an aluminum pan hermetically sealed with an aluminum pierced cover. The analysis was performed heating the sample from 25° C. to 320° C. at 10° C./min. TGA-FTIR coupled with Thermo Nicoled is 10 spectometer. The analysis was carried out using the mettler toledo TGA/DSC1. The sample was weighed in an aluminum pan hermetically sealed with an aluminum pierced cover. The analysis was performed heating the sample from 25° C. to 320° C. at 10° C./min. The evolved gas is compared with ft-ir spectra database for identification.

[8] = Stability test (exposed sample 16 h), form by XRPD; settings: resulting form
[9] = Stability test (sealed vial 18 h), form by XRPD; settings: resulting form
[10] = XRPD after Grinding; settings: resulting form after grinding

For `OCc1cc([C@@H](O)CNCCCCCCOCCOCc2c(Cl)cccc2Cl)ccc1O` [form III, vilanterol trifenatate], the “modifications in XRPD pattern after storage (structural stability)” value ([1]; 60% RH and 25° C. for 7 days, exposed powder) was “No significant modifications in XRPD pattern”, the “hygroscopicity classification according to the European Pharmacopoeia (EP, version 7.0)” value ([2]; 80% RH and 25° C.) was “slightly hygroscopic” and the “mass increase by dynamic vapor sorption analysis (hygroscopicity)” value ([2]; 80% RH and 25° C., first sorption cycle, relative to 40% RH) was 1.1%. For the same compound, the “Change In Mass (%) Desorption” value ([2]; Cycle 1, target RH 0.0%) was −0.017%, the “Change In Mass (%) Desorption” value ([2]; Cycle 1, target RH 10.0%) was 0.002% and the “Change In Mass (%) Desorption” value ([2]; Cycle 1, target RH 20.0%) was 0.015%. For the same compound, the “Change In Mass (%) Desorption” value ([2]; Cycle 1, target RH 30.0%) was 0.024%, the “Change In Mass (%) Desorption” value ([2]; Cycle 1, target RH 40.0%) was 0.035% and the “Change In Mass (%) Hysteresis” value ([2]; Cycle 1, target RH 40.0%) was 0.035%. The “Change In Mass (%) Sorption” value ([2]; Cycle 1, target RH 40.0%) was 0.000%, the “Change In Mass (%) Desorption” value ([2]; Cycle 1, target RH 50.0%) was 0.280% and the “Change In Mass (%) Hysteresis” value ([2]; Cycle 1, target RH 50.0%) was 0.271%. The “Change In Mass (%) Sorption” value ([2]; Cycle 1, target RH 50.0%) was 0.008%, the “Change In Mass (%) Desorption” value ([2]; Cycle 1, target RH 60.0%) was 0.421% and the “Change In Mass (%) Hysteresis” value ([2]; Cycle 1, target RH 60.0%) was 0.399%. The “Change In Mass (%) Sorption” value ([2]; Cycle 1, target RH 60.0%) was 0.022%, the “Change In Mass (%) Desorption” value ([2]; Cycle 1, target RH 70.0%) was 0.567% and the “Change In Mass (%) Hysteresis” value ([2]; Cycle 1, target RH 70.0%) was 0.530%. The “Change In Mass (%) Sorption” value ([2]; Cycle 1, target RH 70.0%) was 0.037%, the “Change In Mass (%) Desorption” value ([2]; Cycle 1, target RH 80.0%) was 1.144% and the “Change In Mass (%) Hysteresis” value ([2]; Cycle 1, target RH 80.0%) was 0.061%. For the same compound, the “Change In Mass (%) Sorption” value ([2]; Cycle 1, target RH 80.0%) was 1.083%, the “Change In Mass (%) Desorption” value ([2]; Cycle 1, target RH 90.0%) was 1.857% and the “Change In Mass (%) Sorption” value ([2]; Cycle 1, target RH 90.0%) was 1.857%. For the same compound, the “Change In Mass (%) Sorption” value ([2]; Cycle 2, target RH 0.0%) was −0.017%, the “Change In Mass (%) Sorption” value ([2]; Cycle 2, target RH 10.0%) was −0.003% and the “Change In Mass (%) Sorption” value ([2]; Cycle 2, target RH 20.0%) was 0.008%. The “Change In Mass (%) Sorption” value ([2]; Cycle 2, target RH 30.0%) was 0.016%, the “Change In Mass (%) Sorption” value ([2]; Cycle 2, target RH 40.0%) was 0.025% and the “Change In Mass (%) Sorption” value ([2]; Cycle 2, target RH 50.0%) was 0.033%. For the same compound, the “Change In Mass (%) Sorption” value ([2]; Cycle 2, target RH 60.0%) was 0.041%, the “Change In Mass (%) Sorption” value ([2]; Cycle 2, target RH 70.0%) was 0.056% and the “Change In Mass (%) Sorption” value ([2]; Cycle 2, target RH 80.0%) was 1.111%. For the same compound, the “Change In Mass (%) Sorption” value ([2]; Cycle 2, target RH 90.0%) was 1.952%, the “stability / XRPD pattern after DVS analysis” value ([2]; XRPD after DVS analysis, compared with untreated sample) was “no significant modifications” and the “visual solubility in tetrahydrofuran (THF)” value ([3]; THF at 25° C.) was “sparingly soluble (another 3.5 mL of the solvent was added and the Dissolving Procedure (see above) followed. If the compound was completely dissolved, it is sparingly soluble.)”. For the same compound, the “visual solubility in water” value ([3]; water at 75° C.) was “insoluble”, the “XRPD of micronized product versus starting material” value ([4]; after fluid energy jet milling) was “identical to the one of the starting material” and the “particle size distribution Dv90 after micronization” value ([4]; fluid energy jet mill, N2) was “below 10 μm”.
In the case of `OCc1cc([C@@H](O)CNCCCCCCOCCOCc2c(Cl)cccc2Cl)ccc1O` [form IX, vilanterol trifenatate], the “Stability test (25° C. 60% RH-7 d)” value ([1]; listed as Form 9) was “Form 9”, the “Hygroscopically (DVS)” value ([2]; listed as Form 9) was “Slightly” and the “XRPD after DVS” value ([2]; listed as Form 9) was “Low crystallinity”. The “DSC (onset) endo. degradation” value ([5]; listed as Form 9) was “endo. 188 °C”, the “DSC (onset) endo. solvent loss + melting” value ([5]; listed as Form 9) was “endo. 100 °C solvent” and the “DSC (onset) endo. solvent loss” value ([5]; listed as Form 9) was “endo. 68 °C solvent loss”. The “Stability test (60° C. 75% RH-3 d)” value ([6]; listed as Form 9) was “Partial conversion”, the EGA ([7]; listed as Form 9) was “Nitromethane” and the “Stability test (exposed sample 16 h)” value ([8]; listed as Form 9) was “Form 9”. The “Stability test (sealed vial 18 h)” value ([9]; listed as Form 9) was “Form 9” and the “XRPD after Grinding” value ([10]; listed as Form 9) was “Amorphous”.
In the case of `OCc1cc([C@@H](O)CNCCCCCCOCCOCc2c(Cl)cccc2Cl)ccc1O` [form VI, vilanterol trifenatate], the “Stability test (25° C. 60% RH-7 d)” value ([1]; listed as Form 6) was “Form 1 (almost”, the “Hygroscopically (DVS)” value ([2]; listed as Form 6) was “Slightly hygroscopic (Increase in mass is less than 2% and equal to or greater than 0.2%)” and the “XRPD after DVS” value ([2]; listed as Form 6) was “Form 6”. For the same compound, the “DSC (onset) endo. solvent loss + melting” value ([5]; listed as Form 6) was “endo. 80 °C solvent loss +”, the “DSC (onset) endo. solvent loss” value ([5]; listed as Form 6) was “endo. 65 °C solvent loss” and the “Stability test (60° C. 75% RH-3 d)” value ([6]; listed as Form 6) was “Amorphous”. The EGA ([7]; listed as Form 6) was 2-Propanol, the “TGA overall weight loss” value ([7]; listed as Form 6) was “One weight loss of 73% w/w” and the “Stability test (exposed sample 16 h)” value ([8]; listed as Form 6) was “Form 12”. For the same compound, the “Stability test (sealed vial 18 h)” value ([9]; listed as Form 6) was “Form 6”.
In the case of `OCc1cc([C@@H](O)CNCCCCCCOCCOCc2c(Cl)cccc2Cl)ccc1O` [form VIII, vilanterol trifenatate], the “Stability test (25° C. 60% RH-7 d)” value ([1]; listed as Form 8) was “Strong crystallinity”, the “Hygroscopically (DVS)” value ([2]; listed as Form 8) was “Not hygroscopic” and the “XRPD after DVS” value ([2]; listed as Form 8) was “Form 8”. The “DSC (onset) endo. degradation” value ([5]; listed as Form 8) was “endo. 191 °C”, the “DSC (onset) endo. solvent loss + melting” value ([5]; listed as Form 8) was “endo. 136 °C solvent” and the “DSC (onset) endo. solvent loss” value ([5]; listed as Form 8) was “endo. 66 °C solvent loss”. For the same compound, the “Stability test (60° C. 75% RH-3 d)” value ([6]; listed as Form 8) was “Partial conversion”, the EGA ([7]; listed as Form 8) was “Anisole” and the “TGA overall weight loss” value ([7]; listed as Form 8) was “of approx.. 68% w/w”. For the same compound, the “Stability test (exposed sample 16 h)” value ([8]; listed as Form 8) was “Form 8”, the “Stability test (sealed vial 18 h)” value ([9]; listed as Form 8) was “Form 8” and the “XRPD after Grinding” value ([10]; listed as Form 8) was “Strong crystallinity”.
With `OCc1cc([C@@H](O)CNCCCCCCOCCOCc2c(Cl)cccc2Cl)ccc1O` [form X, vilanterol trifenatate] the “Stability test (25° C. 60% RH-7 d)” value ([1]; listed as Form 10) was “Form 1”, the “Hygroscopically (DVS)” value ([2]; listed as Form 10) was “Slightly” and the “XRPD after DVS” value ([2]; listed as Form 10) was “Form 1”. The “DSC (onset) endo. degradation” value ([5]; listed as Form 10) was “endo. 188 °C”, the “DSC (onset) endo. solvent loss + melting” value ([5]; listed as Form 10) was “endo. 69 °C solvent” and the “Stability test (60° C. 75% RH-3 d)” value ([6]; listed as Form 10) was “Form 1”. For the same compound, the EGA ([7]; listed as Form 10) was “Ethanol”, the “Stability test (exposed sample 16 h)” value ([8]; listed as Form 10) was “Form 10” and the “Stability test (sealed vial 18 h)” value ([9]; listed as Form 10) was “Form 10”. For the same compound, the “XRPD after Grinding” value ([10]; listed as Form 10) was “Amorphous”.

Reference: patent US11414374B2, “Crystalline forms of vilanterol trifenatate and processes for their preparation” (Hovione Scientia Limited, priority 2017, dated 2022)
